According to patent US6395733B1, “Heterocyclic ring-fused pyrimidine derivatives” (Pfizer Inc, priority 1999, dated 2002):

Assays:
[1] = test system: transplanted human mammary carcinoma which expresses epidermal growth factor receptor tyrosine kinase (EGFR); settings: athymic nude mice; cited from earlier work
[2] = test system: another carcinoma which does not express the EGF receptor; settings: athymic nude mice; cited from earlier work

SMILES | melting point | also measured
Clc1ccc2c(c1)N(c1ncnc3cnccc13)CC2 | 194 to 196 °C | –
Cl.Clc1ccc2c(c1)N(c1ncnc3[nH]ccc13)CC2 | 266 °C (dec.) | –
c1ccc(Nc2ncnc3ncccc23)cc1 | 258 °C | –
Oc1cc2ncnc(N3CCc4ccc(Cl)cc43)c2[nH]1 | 250 °C (dec.) | –
Cl.c1nc(Nc2ccc3[nH]ccc3c2)c2cc[nH]c2n1 | 218 to 221 °C | –
Cc1cc2c(N3CCc4c(Br)ccc(C)c43)ncnc2cn1.Cl | 232 to 244 °C | –
Cc1cc2c(N3CCc4ccc(Br)c(C)c43)ncnc2cn1.Cl | 212 to 229 °C | –
Cc1cc2c(N3CCc4cc(F)c(Br)cc43)ncnc2cn1.Cl | 262 to 264 °C | –
Cl.c1cc2c(Nc3ccc4sccc4c3)ncnc2cn1 | 280 to 282 °C | –
O=CN/C=C/c1cc(O)ccc1O [erbstatin] | – | growth of transplanted human mammary carcinoma expressing EGFR [1]: selectively attenuates the growth; growth of carcinoma not expressing the EGF receptor [2]: without effect on the growth

Second part, led by results:

melting point | SMILES | also measured
240 to 241 °C | C#Cc1cccc(Nc2ncnc3cc(C)ncc23)c1.Cl | –
172 °C | Cc1cccc(Nc2ncnc3cnccc23)c1 | –
161 °C | c1ccc(Nc2ncnc3cnccc23)cc1 | –
240 to 241 °C | C#Cc1cccc(Nc2ncnc3c2ccn3CCOCCOC)c1 | –
225 °C | C#Cc1cc(Nc2ncnc3cnc(C)cc23)ccc1F | –
298 to 305 °C | Cc1cc2c(Nc3ccc(O)c(C)c3)ncnc2cn1.Cl.Cl | –
251 to 258 °C | Cc1cc2c(Nc3ccc(F)c(Cl)c3)ncnc2cn1.Cl | –
269 to 270 °C | Cc1cc2c(Nc3cccc(C(F)(F)F)c3)ncnc2cn1.Cl | –
246 to 250 °C | Cc1cc2c(Nc3ccc(F)c(C)c3)ncnc2cn1.Cl | –
261 to 265 °C | Cc1cc2c(Nc3ccc(O)c(I)c3)ncnc2cn1.Cl | –
251 to 254 °C | Cc1cc2c(Nc3ccc(Br)c(F)c3)ncnc2cn1.Cl | –
250 to 252 °C | C#Cc1cccc(Nc2ncnc3cnc(C)cc23)c1.Cl | –
232 to 234 °C | Cc1cc2c(N3CCc4ccc(Cl)cc43)ncnc2cn1 | –
262 to 263 °C | CS(=O)(=O)O.Cc1cc2c(Nc3ccc4[nH]ccc4c3)ncnc2cn1 | –
